Reference: ChEMBL document CHEMBL3832060, “DailyMed|setid=39945812-f776-4b13-8199-e846e37aa101 | TRAMADOL HYDROCHLORIDE AND ACETAMINOPHEN - tramadol hydrochloride and acetaminophen tablet, film coated|Cadila Healthcare Limited”

Experiment: clinical
Settings: human, in vivo, po
Description: Evalaution of pharmacokinetic parameters of Acetaminophen following single oral co-administration of 325 mg Acetaminophen tablets with 37.5 mg Tramadol.

Cmax: 4200 ng/mL | Tmax: 0.9 h | half-life: 2.5 h
Compound: CC(=O)Nc1ccc(O)cc1 [ACETAMINOPHEN]
